Data set [1] concerns Leishmania aethiopica promastigotes. Put plainly: In vitro antipromastigote (antileishmanial) assay, AlamarBlue. The class given is cell-based. Here is the method: The viability of promastigotes can be estimated by microscopically counting live cells, measuring enzyme activities via the 3-(4,5-dimethyl-thiazol-2-yl)-2,5-diphenyl-tetrazolium bromide (MTT) assay, etc. The frequent use of these methods is hampered due to the lengthy and time-consuming procedures followed in the test. […] The extent of fluorescence produced by each sample is strongly correlated with the number of living cells.
A complete culture medium was prepared from RPMI-1640, 10% HIFCS, 1% penicillin–streptomycin, and 1% L-glutamine for the in vitro antipromastigote assay. The Leishmania aethiopica isolate was grown first on Novy-MacNeal-Nicolle (NNN) medium and then in tissue-culture flasks containing RPMI-1640 medium supplemented with 10% HIFCS and 1% 100 IU penicillin/mL-100 µg/mL streptomycin solution at 22 ℃ [35].
The entire test compound was dissolved in DMSO to a final concentration of 1 mg/mL. The final DMSO concentration was adjusted not to exceed v/v 1% to avoid its inhibitory effect against parasite proliferation or change in morphology. Six different concentrations of test compounds, ranging from 10 µg/mL to 0.04 µg/mL, were prepared by […] serial dilutions. Amphotericin B deoxycholate (with a concentration ranging from 0.5 µg/mL to 0.002 µg/mL) and miltefosine (with a concentration ranging from 40 µg/mL to 0.16 µg/mL) were used as a positive control and DMSO (v/v 1%) in complete media was used as a negative control to compare the antileishmanial activities of test compounds [36]. All the prepared drugs were stored at − 20 ℃ until used in the experiment.
The antileishmanial activity of the test compounds was evaluated in vitro against isolates of Leishmania aethiopica promastigotes. 100 µL of the parasite suspension containing 3 × 10^6 promastigotes per milliliter was added to 96-well plates. The six different concentrations of test compounds and reference drugs were then added in triplicate. DMSO in complete RPMI media was used as a negative control to compare the antileishmanial activities of the test compounds. After 24 h incubation, 20 µL of fluorochrome AlamarBlue® (12.5 mg resazurin dissolved in 100 mL of distilled water) was added to each well. Then, the absorbance of each well was measured after 4 h of incubation at wavelengths of 492 and 630 nm using an ELISA reader for the quantitative determination of viable cells. Finally, the IC50 values were computed from sigmoidal dose–response curves using GraphPad Prism 5.0 software (GraphPad Software, Inc., San Diego, CA, USA).

Data set [2] has as its system Plasmodium berghei ANKA strain. Put plainly: In vivo antimalarial four-day suppressive test. Further details: species or system Swiss albino mice. Conditions: P. berghei infected mice; for Mean survival time: 48.46 µmol/kg per day (CQ 25 mg/kg), ND = no mouse death recorded during the study period; for Mean survival time / % Parasitemia: mean ± SD; for % Parasitemia / inhibition in vivo at 48.46 µmol/kg: day 4, 48.46 µmol/kg per day (CQ 25 mg/kg); for inhibition in vivo at 48.46 µmol/kg: Plasmodium berghei, in Mus musculus, 96 h, read-out: % Suppression. From the text: The four-day suppressive test was implemented to screen the antimalarial activity of the target compounds as it is effective in evaluating early infections and convenient to assess the prodrug effects of test compounds [30]. In this study, the in vivo antimalarial activity of the target compounds was investigated by using mice infected with Plasmodium berghei (achieve steady-state infection) at a dose of 48.4 µmol/kg per day. The results of the antimalarial activity screening of target compounds against the control groups were expressed based on mean parasitemia and percent inhibition of parasitemia (Table 2) which is known as a reliable parameter for in vivo antimalarial screening tests. […] While compounds 9, 10 and 11 containing amidic carbonyl group had less than 50% mean percent suppression compared to the positive control groups. Among the tested compounds, bis-[N,N-dimethylaminomethylene-4-(3-(4-methylphenyl)-4-(hydrazonomethylene)-1H-pyrazole-1-yl)benzenesulfonamide] […] On the other hand, there was an increase in the mean survival time (9.8 ± 1.3) of mice treated with a half dose ([…]) of compound 15, highlighting the potential dose-dependent toxicity associated with bis-structure due to cleavage of acid labile C = N bond and subsequent increase in concentration in the systemic circulation. […] This could be attributed to the presence of a primary amine group adjacent to the C = N bond that can increase the strength of binding interaction with the active site of the receptor by hydrogen bonding. Moreover, the hydrophobic interaction imparted by the methylated phenyl group with the amino acid residues in the enzyme pocket may be beneficial for the observed antimalarial activity of compound 14. The compounds containing C = O bond (9–12) near C = N had relatively lower antimalarial activity due to the electron-withdrawing effect and subsequent decrease in hydrogen bonding interactions with the different functional groups reside in the enzyme pocket.
The in vivo antimalarial activity of the synthesized compounds was determined using the four-day standard suppressive test using Swiss albino mice donated by the Ethiopian Health and Nutrition Institute, Addis Ababa, Ethiopia. Briefly, Swiss albino mice were infected with Plasmodium berghei ANKA strain (0.2 mL of 2 × 10^7 parasitized erythrocytes) through intraperitoneal injection. After 2 h of infection, the mice were weighed and randomly divided into nine groups of five mice per cage. Groups 1–7 received each test compound ([…]) dissolved in a vehicle containing 7% Tween 80, 3% ethanol, and water. Group 8 was treated with chloroquine phosphate (25 mg/kg) suspended in 7% Tween 80, 3% ethanol, and water which served as a positive control. Group 9 received 2 mL/100 g of the negative control (vehicle 7% Tween 80, 3% ethanol, and water). On day four (96 h post-infection), a blood smear was taken from the tail of each mouse, fixed with absolute ethanol, and stained with Giemsa stain. Then, the level of parasitemia was determined microscopically by counting four fields of approximately 100 erythrocytes per field. Finally, the antimalarial effects of control groups and test compounds were expressed in terms of blood parasitemia, percent suppression and mean survival time of mice.
The % suppression and % parasitemia in the antimalarial activity testing were computed using the formulas given below and the resulting data along with the mean survival time was analyzed using Microsoft office excel 2007. The variation in the values of suppressive test was assessed by using one-way analysis of variance (ANOVA) and p < 0.05 is considered as stastically significant.
Parasitemia(%)=Numberofinfectedredbloodcells/Numberoftotalredbloodcells×100
Suppression(%)=Parasitemiaintheuntreatedgroup-Parasitemiainthetreatedgroup/Parasitemiainuntreatedgroup×100

Details of data set [3]: method as in PMID 25768697. Particulars: cited from earlier work.
Data set [4] in a line: In vitro cytotoxicity test. Type of data set: cell-based, African green monkey. Conditions: African green monkey, VERO cells (African green monkey kidney cells); normal VERO cells, 72 h, formazan OD. The method, then:
(§1) The cytotoxicity of compound 13 with promising antileishmanial activity was investigated in vitro against African green monkey kidney cells (VERO cells). In a 96-well plate, VERO cells (1 × 10^5 cells per well) were incubated in triplicates with different concentrations of compound 13 (0–100 µM) for 72 h at 37 ℃ incubator with 95% humidity and 5% CO2 and the cell viability was determined by measuring the optical density (OD) of formazan. […] The CC50 and IC50 values were computed using the formula: Growth inhibition (%) = (ODcontrol-ODtest/ODcontrol)×100 . In addition, the selectivity indices (SI) were computed using the formula SI = CC50/IC50.

In the next data set the test system is VERO cells. Put plainly: In vitro cytotoxicity test. Type of data set: cell-based, African green monkey. Particulars: CC50 VERO cells / IC50 Leishmania aethiopica. Here is the method:
as §1

Data set [5] in a line: In vivo acute toxicity test (oral and intraperitoneal). Conditions: mice. Here is the method:
The mice were weighed and divided into five groups of six mice per cage. After fasting them overnight, groups 1–4 received the test compound suspended in 1% acacia gum was administered orally at doses of 50, 100, 200, and 300 mg/kg. Group 5 (served as a control) was treated with the solvent (1% acacia gum) at a maximum dose of 1 mL/100 gm of body weight. […] Follow-up continued for 14 days with special attention for the first 24 h.

[6] abbreviates: Leishmania aethiopica promastigotes, triplicate, 24 h incubation + 4 h AlamarBlue, read-out: IC50 Values (µg/mL), antipromastigote activity.
The mark [7] stands for this setting: Leishmania aethiopica promastigotes, molar form of the µg/mL values, read-out: IC50 Values (µM/mL), antipromastigote activity.

The structures appear in SMILES notation. ≈ marks a conversion by molar mass, not a printed value. Where “and” joins values, the source holds several entries; their conditions need not be identical. Equal values may be shown once. Read-outs that look alike come from different tables or passages of the source.

For the molecule `Cc1ccc(-c2nn(-c3ccc(S(=O)(=O)N=CN(C)C)cc3)cc2/C=N/NC(=O)c2ccccc2O)cc1` [Compound 12], the IC50 in data set [1] (setting [6]) turned out to be 0.111 µg/mL. The IC50 in data set [1] (setting [7]) was found to be 0.28 µM. Also, in data set [2], the “Mean survival time” value stood at 7.8 ± 1.2 days and the “% Parasitemia” value amounted to 67.9 ± 3.7%.
For the molecule `Cc1ccc(-n2cc(C=NNC(=O)c3ccccc3O)c(-c3ccccc3)n2)cc1` [Compound 11, Nʹ-[(3-phenyl-1-(4-methylphenyl)-1H-pyrazol-4-yl)methylene] salicylhydrazide], in data set [1] (setting [6]), the IC50 is 5.74 µg/mL. Moreover, the IC50 in data set [1] (setting [7]) amounted to 10.4 µM. In data set [2], the “Mean survival time” value amounted to 8.7 ± 0.7 days, the “% Parasitemia” value was 30.0 ± 6.7% and the inhibition in vivo at 48.46 µmol/kg is < 50%.
For `C[C@@H]1[C@H](O)[C@@H](C)/C=C/C=C/C=C/C=C/C=C/C=C/C=C/[C@H](O[C@@H]2O[C@H](C)[C@@H](O)[C@H](N)[C@@H]2O)C[C@@H]2O[C@](O)(C[C@@H](O)C[C@@H](O)[C@H](O)CC[C@@H](O)C[C@@H](O)CC(=O)O[C@H]1C)C[C@H](O)[C@H]2C(=O)O` [Amphotericin B, Amphotericin B deoxycholate, reference compound], the IC50 stood at 0.047 µg/mL in data set [1] (setting [6]) and 0.035 µM in data set [1] (setting [7]). In data set [3], the “IC50, antileishmanial activities” value was 0.0472 µg/mL (≈ 0.0511 µM).
For the molecule `CN(C)C=NS(=O)(=O)c1ccc(-n2cc(/C=N/NC(=O)c3ccccc3O)c(-c3ccc(Cl)cc3)n2)cc1` [Compound 10, Nʹ-[(3-(4-chlorophenyl)-1-((4-N,N-dimethylaminomethylenesulfonamido)phenyl)-1H-pyrazol-4-yl)methylene] salicylhydrazide], the IC50 in data set [1] (setting [6]) is 0.207 µg/mL. In addition, the IC50 in data set [1] (setting [7]) was found to be 0.45 µM. In data set [2], the “Mean survival time” value was 6.8 ± 0.7 days, the “% Parasitemia” value is reported as 33.0 ± 6.7% and the inhibition in vivo at 48.46 µmol/kg was < 50%.
In the case of `Cc1ccc(-c2nn(-c3ccc(S(N)(=O)=O)cc3)cc2/C=N/N)cc1` [Compound 14, 4-[3-(4-methylphenyl)-4-hydrazonomethylene-1H-pyrazol-1-yl] benzenesulfonamide], in data set [1] (setting [6]), the IC50 amounted to 3.26 µg/mL. In addition, in data set [1] (setting [7]), the IC50 was 6.71 µM. In data set [2], the “Mean survival time” value stood at 9.0 ± 2.0 days and the “% Parasitemia” value is listed as 15.5 ± 4.1%.
Broadly, the CC50 is the concentration that lowers cell viability or growth by half. `Cc1ccc(-c2nn(-c3ccc(S(=O)(=O)N=CN(C)C)cc3)cc2/C=N/Nc2ccccc2)cc1` [Compound 13, N,N-dimethylaminomethylene-4-[(3-(4-methylphenyl)-4-(phenylhydrazonomethylene))-1H-pyrazol-1-yl]benzenesulfonamide]: the IC50 in data set [1] (Leishmania aethiopica, read-out: IC50 Values (µM/mL), antipromastigote activity) worked out at 0.033 µM. In addition, the IC50 in data set [1] (Leishmania aethiopica, value used for selectivity index, read-out: IC50 (µM) of antileishmanial activity (Table 3)) was found to be 0.604 µM. Also, the “fold more active than amphotericin B deoxycholate (antipromastigote)” value in data set [1] (ratio of IC50 values versus amphotericin B deoxycholate) is ~2.6 fold. Also, in data set [2], the “Mean survival time” value stood at 9.5 ± 1.9 days, the “% Parasitemia” value is 24.0 ± 1.7% and the inhibition in vivo at 48.46 µmol/kg is > 50%. It took 118 µM to reach half-maximal cytotoxicity in data set [4] (CC50 at 72 h). For the same molecule, the “SI (selectivity index, CC50/IC50)” value in the data set on VERO cells is 194 and 194.88. In data set [5] (intraperitoneal injection ≤ 140 mg/kg, within 24 h or the entire study period), the intraperitoneal acute toxicity result is recorded as “devoid of any inherent dose-dependent toxicity or death”. Moreover, the “oral acute toxicity: death” value in data set [5] (oral 50, 100, 200 and 300 mg/kg, 14 days) was “devoid of any death at all dose”. The “oral acute toxicity: physical and gross behavioral observations” value in data set [5] (oral, up to highest dose 300 mg/kg) is “no visible symptoms of toxicity”.
Regarding `Cc1ccc(-c2nn(-c3ccc(S(=O)(=O)N=CN(C)C)cc3)cc2C=NN=Cc2cn(-c3ccc(S(=O)(=O)N=CN(C)C)cc3)nc2-c2ccc(C)cc2)cc1` [Compound 15, Bis-[N,N-dimethylaminomethylene-4-(3-(4-methylphenyl)-4-(hydrazonomethylene)-1H-pyrazole-1-yl)benzenesulfonamide]], the IC50 in data set [1] (setting [6]) worked out at 0.181 µg/mL. The IC50 in data set [1] (setting [7]) was 0.441 µM. Besides, in data set [2], the “Mean survival time” value amounted to 7.7 ± 1.4 days and the “% Parasitemia” value is listed as 5.0 ± 1.4%. The “mean survival time at half dose” value in data set [2] (half dose (24.2 µmol/mL)) is 9.8 ± 1.3.
Turning to `O=C(NN=Cc1cn(-c2ccc(Br)cc2)nc1-c1ccccc1)c1ccccc1O` [Compound 9, Nʹ-[(1-(4-bromophenyl)-3-phenyl-1H-pyrazol-4-yl)methylene] salicylhydrazide], in data set [1] (setting [6]), the IC50 was 0.084 µg/mL. Further, in data set [1] (setting [7]), the IC50 was 0.256 µM. Also, in data set [2], the “Mean survival time” value was determined as 8.6 ± 1.8 days, the “% Parasitemia” value amounted to 34.7 ± 4.1% and the inhibition in vivo at 48.46 µmol/kg was < 50%.

(Values after publication PMC10775556, “Synthesis, antileishmanial, antimalarial evaluation and molecular docking study of some hydrazine-coupled pyrazole derivatives” (BMC Chemistry, 2024).)
